Measured values reported in patent publication US10508120B2, “TYK2 inhibitors and uses thereof” (Nimbus Lakshmi, Inc., priority 2017, dated 2019).
pKd: −log10 of the molar value.

Legend:
[1] = molecular target: human TYK2 (JH2domain-pseudokinase) (Homo sapiens (Human), UniProt P29597); assay: TYK2 JH2 Domain Binding Assay (KINOMEscan)
In short: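 Kds, run in duplicate, came from Hill fits (slope fixed at −1) of an 11-point 3-fold dilution series starting at 30,000 nM. Bead-retained TYK2 JH2 (aa G556–D888)–NFkB DBD fusion, DNA-tagged and expressed in HEK293 cells, was read by qPCR after 1 h room-temperature binding in 0.9% DMSO.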

JAK2 kinase domain (JH1) = JAK2 kinase domain (JH1) (Homo sapiens (Human), UniProt O60674); assay: JAK2 Radioactive Kinase Assay; format: biochemical; settings: 10 μM compound; 10 μM ATP
JAK2 kinase domain (JH1), sequence (O60674 849-1124): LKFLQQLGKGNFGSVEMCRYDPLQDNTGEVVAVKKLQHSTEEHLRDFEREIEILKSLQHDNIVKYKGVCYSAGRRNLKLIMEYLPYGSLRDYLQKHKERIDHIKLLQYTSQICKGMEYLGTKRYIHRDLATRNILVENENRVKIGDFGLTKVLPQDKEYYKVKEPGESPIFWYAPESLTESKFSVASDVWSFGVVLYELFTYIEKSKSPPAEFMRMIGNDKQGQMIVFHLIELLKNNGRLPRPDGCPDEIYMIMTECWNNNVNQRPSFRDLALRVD
Procedure: The Tyk2 and JAK2 radioactive kinase assay measures the percent inhibition at the Tyk2 kinase domain (DH1) and the percent inhibition at the JAK2 kinase domain (JH1). Results of the assay are expressed as percent inhibition at 10 μM.

human TYK2 (JH2domain-pseudokinase), sequence (P29597 556-888): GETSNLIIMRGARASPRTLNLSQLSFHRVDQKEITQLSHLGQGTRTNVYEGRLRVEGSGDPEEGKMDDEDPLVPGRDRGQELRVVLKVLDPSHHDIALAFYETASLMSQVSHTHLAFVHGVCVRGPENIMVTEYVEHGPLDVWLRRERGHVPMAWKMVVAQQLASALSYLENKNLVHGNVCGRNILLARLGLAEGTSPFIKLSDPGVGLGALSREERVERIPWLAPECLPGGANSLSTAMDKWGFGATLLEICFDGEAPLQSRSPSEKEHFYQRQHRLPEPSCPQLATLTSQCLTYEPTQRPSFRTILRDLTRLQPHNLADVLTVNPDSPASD

Row | SMILES | pKd [1] | JAK2 JH1% Inhibition @ 10 μM (JAK2 kinase domain (JH1))
1 | CNc1cc(Nc2cccn(C3CCOCC3)c2=O)nc2c(C(=O)N[C@@H]3CC[C@@H](OC)C3)cnn12 (stereo in doubt) [I-1334, N-(3-methoxycyclopentyl)-7-(methylamino)-5-((2-oxo-1-(tetrahydro-2H-pyran-4-yl)-1,2-dihydropyridin-3-yl)amino)pyrazolo[1,5-a]pyrimidine-3-carboxamide] | > 9.70 | 
2 | CNc1cc(Nc2cccn(C3CC(F)(F)C3)c2=O)nc2c(C(=O)N[C@@H]3CC[C@H](O)C3)cnn12 [I-1212] | < 8.00 | 
3 | CNc1cc(Nc2cc(Cl)cnc2OC(C)C)nc2c(C(=O)NC3COC3)cnn12 [I-87] | < 8.00 | 
4 | CNc1cc(Nc2cccn([C@H]3CC[C@H]3O)c2=O)nc2c(C(=O)N[C@@H]3C[C@@H]3F)cnn12 [I-1284] | 9.00 to 9.70 | 
5 | CNc1cc(Nc2cccn([C@@H]3CCCC[C@@H]3O)c2=O)nc2c(C(=O)N[C@@H]3CC[C@H]3OC)cnn12 [I-1339] | 9.00 to 9.70 | 
6 | CNc1cc(-c2cn(CCCO)c3ncc(F)cc23)nc2c(C(=O)N[C@@H]3CC[C@H]3OC)cnn12 [I-1229] | > 9.70 | 
7 | CNc1cc(Nc2cccn([C@@H]3C[C@H]3OC)c2=O)nc2c(C(=O)N[C@H]3CC[C@@H]3OC)cnn12 [I-1233] | 8.00 to 9.00 | 
8 | CNC(=O)c1occc1Nc1cc(NC)n2ncc(C(=O)N[C@@H]3CC[C@H]3OC)c2n1 [I-1322] | > 9.70 | 
9 | CNc1cc(-c2cn([C@@H]3CCC[C@H]3OC)c3ncccc23)nc2c(C(=O)N[C@@H]3CC[C@@H]3O)cnn12 [I-1247, N-((1R,2S)-2-hydroxycyclobutyl)-5-(1-((1R,2R)-2-methoxycyclopentyl)-1H-pyrrolo[2,3-b]pyridin-3-yl)-7-(methylamino)pyrazolo[1,5-a]pyrimidine-3-carboxamide] | > 9.70 | 
10 | CNc1cc(Nc2cccn(C3CCOCC3)c2=O)nc2c(C(=O)N[C@H]3CCCC[C@]3(C)O)cnn12 [I-1197] | > 9.70 | 
11 | CNc1cc(-c2cn(C3CCOCC3)c3ncccc23)nc2c(C(=O)N[C@H]3CCC[C@]3(C)O)cnn12 [I-1222] | > 9.70 | 
12 | CNc1cc(Nc2cccn([C@H]3CCCOC3)c2=O)nc2c(C(=O)N[C@@H]3CC[C@H]3OC)cnn12 [I-876] |  | A (percent inhibition at 10 μM lower than 50)
13 | CNc1cc(-c2cn(C3CCOCC3)c3ncccc23)nc2c(C(=O)N[C@@H]3CCC[C@@]3(C)O)cnn12 [I-1221] | 9.00 to 9.70 | 
14 | CNc1cc(Nc2cccn(C3CCOCC3)c2=O)nc2c(C(=O)N[C@@H]3CCC[C@@H](O)C3)cnn12 [I-1290] | < 8.00 | 

More lines, main results first:

Row | pKd [1] | SMILES | JAK2 JH1% Inhibition @ 10 μM (JAK2 kinase domain (JH1))
15 | 8.00 to 9.00 | CNc1cc(Nc2cccn([C@@H]3C[C@H]3F)c2=O)nc2c(C(=O)N[C@@H]3CC[C@H]3O)cnn12 [I-1402] | 
16 | > 9.70 | CNc1cc(Nc2cccn([C@@H]3CCC[C@H](C#N)C3)c2=O)nc2c(C(=O)N[C@@H]3C[C@@H]3F)cnn12 [I-1219] | 
17 | < 8.00 | CNc1cc(Nc2cccc(N3CCCC3=O)n2)nc2c(C(=O)NC3COC3)cnn12 [I-88] | 
18 | 8.00 to 9.00 | CNc1cc(Nc2cccn(C3CC(F)(F)C3)c2=O)nc2c(C(=O)N[C@H]3COC[C@H]3O)cnn12 [I-1206] | 
19 | > 9.70 | CNc1cc(-c2cn([C@@H]3CCCOC3)c3ncccc23)nc2c(C(=O)N[C@@H]3CC[C@H]3OC)cnn12 [I-1267] | 
20 | 8.00 to 9.00 | CNc1cc(Nc2cccn(C3CC(F)(F)C3)c2=O)nc2c(C(=O)N[C@H]3CC[C@@H]3O)cnn12 [I-1390] | 
21 | > 9.70 | CNc1cc(Nc2cccn(C3CC(F)(F)C3)c2=O)nc2c(C(=O)N[C@@H]3CC[C@@H]3O)cnn12 [I-1391] | 
22 | > 9.70 | CNc1cc(Nc2cc3cccnc3n2C2CC2)nc2c(C(=O)N[C@@H]3CC[C@H]3OC)cnn12 [I-1324] | 
23 | < 8.00 | CNc1cc(-c2cn(CCCO)c3ncc(F)cc23)nc2c(C(=O)N[C@H]3CC[C@@H]3OC)cnn12 [I-1298] | 
24 | < 8.00 | CNc1cc(Nc2cccnc2OC(C)C)nc2c(C(=O)NC3COC3)cnn12 [I-86] | 
25 | > 9.70 | CNc1cc(Nc2cccn([C@H]3CCCOC3)c2=O)nc2c(C(=O)N[C@H]3C[C@@H]3OC)cnn12 [I-1249] | 
26 | > 9.70 | CNc1cc(Nc2cccn(C(C)C)c2=O)nc2c(C(=O)N[C@H]3CCCC[C@]3(C)O)cnn12 [I-1277] | 
27 | > 9.70 | CCO[C@@H]1CC[C@H]1NC(=O)c1cnn2c(NC)cc(Nc3cccn(-c4ccccn4)c3=O)nc12 [I-1294] | 
